≈ marks a conversion by molar mass, not a printed value.
Key:
Assay in all cases: ≥ marks a high value that may be exact or a test limit, other limits are often not marked, values filed in µg/mL are converted to µM
[1] = test system: Salmonella enterica subsp. enterica serovar Typhimurium C77-31
[2] = test system: Enterococcus faecalis ATCC 29212
[3] = test system: Escherichia coli ATCC 25922
[4] = test system: Staphylococcus aureus ATCC 29213
[5] = test system: Staphylococcus epidermidis ATCC 12228
[6] = test system: Salmonella enterica subsp. enterica serovar Pullorum C79-13
[7] = test system: Streptococcus mutans
[8] = test system: Micrococcus luteus ATCC 9341
[9] = test system: Escherichia coli BL21AI
[10] = test system: Micrococcus luteus ATCC 10240
[11] = test system: Escherichia coli BW25113
[12] = test system: Candida albicans
[13] = test system: Pseudomonas aeruginosa H103
[14] = test system: Salmonella enterica serovar Typhimurium
[15] = test system: Escherichia coli UB1005
[16] = test system: Staphylococcus epidermidis
[17] = test system: Staphylococcus aureus ATCC 25923

In the case of NCCCC[C@H](NC(=O)CNC(=O)[C@H](CC(N)=O)NC(=O)[C@H](CCCCN)NC(=O)[C@H](Cc1c[nH]c2ccccc12)NC(=O)[C@H](CCCCN)NC(=O)[C@H](Cc1c[nH]c2ccccc12)NC(=O)[C@H](CCCCN)NC(=O)[C@@H](N)Cc1c[nH]c2ccccc12)C(=O)N[C@@H](Cc1c[nH]c2ccccc12)C(=O)N[C@@H](CCCCN)C(=O)N[C@@H](Cc1c[nH]c2ccccc12)C(=O)N[C@@H](CCCCN)C(=O)N[C@@H](Cc1c[nH]c2ccccc12)C(=O)O [WKWKWKNGKWKWKW], the MIC [1] is reported as 8 µM (≈ 16.6 µg/mL), the MIC [2] is reported as 16 µM (≈ 33.2 µg/mL) and the MIC [3] is reported as 2 µM (≈ 4.15 µg/mL). For the same compound, the MIC [4] was 4 µM (≈ 8.3 µg/mL), the MIC [5] was 32 µM (≈ 66.4 µg/mL) and the MIC [6] was 4 µM (≈ 8.3 µg/mL).
Work on NC(N)=NCCC[C@H](NC(=O)[C@H](Cc1c[nH]c2ccccc12)NC(=O)[C@H](Cc1c[nH]c2ccccc12)NC(=O)[C@H](Cc1c[nH]c2ccccc12)NC(=O)[C@H](CCCN=C(N)N)NC(=O)[C@H](CCCN=C(N)N)NC(=O)[C@@H](N)CCCN=C(N)N)C(=O)O [RRRWWWR] yielded an MIC [7] of 26.6 µM (≈ 32 µg/mL).
In the case of CC[C@H](C)[C@H](N)C(=O)N[C@@H](CC(C)C)C(=O)N1CCC[C@H]1C(=O)N[C@@H](CCC(=O)O)C(=O)N[C@@H](CCCCN)C(=O)N[C@@H](CCC(=O)O)C(=O)N1CCC[C@H]1C(=O)N[C@@H](CCC(=O)O)C(=O)N[C@@H](CCC(=O)O)C(=O)N1CCC[C@H]1C(=O)N[C@@H](CCC(=O)O)C(=O)N[C@@H](CCCN=C(N)N)C(=O)N[C@@H](CCCN=C(N)N)C(N)=O [ILPEKEPEEPERR], the MIC [8] is reported as ≥ 100 µM.
In the case of NC(=O)[C@H](Cc1cnc[nH]1)NC(=O)[C@H](Cc1ccccc1)NC(=O)[C@H](Cc1ccccc1)NC(=O)[C@H](Cc1cnc[nH]1)NC(=O)[C@H](Cc1cnc[nH]1)NC(=O)[C@H](Cc1ccccc1)NC(=O)[C@H](Cc1cnc[nH]1)NC(=O)[C@H](CCCN=C(N)N)NC(=O)[C@H](Cc1c[nH]c2ccccc12)NC(=O)[C@H](Cc1c[nH]c2ccccc12)NC(=O)[C@H](CCCN=C(N)N)NC(=O)[C@H](CCCN=C(N)N)NC(=O)[C@H](Cc1c[nH]c2ccccc12)NC(=O)[C@@H](N)CCCN=C(N)N [RWRRWWRHFHHFFH], the MIC [7] is reported as 3.65 µM (≈ 8 µg/mL).
In the case of CC[C@H](C)[C@H](NC(=O)[C@H](CCCN=C(N)N)NC(=O)[C@H](CCCN=C(N)N)NC(=O)[C@@H]1CCCN1C(=O)[C@@H]1CCCN1C(=O)[C@H](CCCN=C(N)N)NC(=O)[C@@H]1CCCN1C(=O)[C@H](CCCN=C(N)N)NC(=O)[C@@H]1CCCN1C(=O)[C@H](CC(C)C)NC(=O)[C@H](Cc1ccc(O)cc1)NC(=O)[C@@H]1CCCN1C(=O)[C@@H]1CCCN1C(=O)[C@H](CCCCN)NC(=O)[C@H](CC(=O)O)NC(=O)[C@@H](N)C(C)C)C(=O)N[C@@H](Cc1ccc(O)cc1)C(=O)N[C@@H](CC(N)=O)C(=O)N[C@@H](CCCN=C(N)N)C(=O)N[C@@H](CC(N)=O)C(=O)O [VDKPPYLPRPRPPRRIYNRN], the MIC [9] is reported as 3.19 µM (≈ 8 µg/mL) and the MIC [10] is reported as 6.39 µM (≈ 16 µg/mL).
For CC[C@H](C)[C@H](NC(=O)[C@H](Cc1ccc(O)cc1)NC(=O)[C@@H](NC(=O)[C@@H]1CCCN1C(=O)[C@H](CCCN=C(N)N)NC(=O)[C@H](CC(N)=O)NC(=O)[C@H](CC(N)=O)NC(=O)CN)C(C)C)C(=O)N[C@@H](C)C(=O)N[C@@H](CCC(N)=O)C(=O)N1CCC[C@H]1C(=O)N[C@@H](CCCN=C(N)N)C(=O)N1CCC[C@H]1C(=O)N1CCC[C@H]1C(=O)N[C@@H](Cc1cnc[nH]1)C(=O)N1CCC[C@H]1C(=O)N[C@@H](C)C(=O)N[C@@H](CC(C)C)C(N)=O [GNNRPVYIAQPRPPHPAL], the MIC [9] was ≥ 62.6 µM and the MIC [10] was ≥ 62.6 µM.
CC[C@H](C)[C@H](NC(=O)[C@@H]1CCCN1C(=O)[C@H](CCCN=C(N)N)NC(=O)[C@H](CCCN=C(N)N)NC(=O)[C@H](Cc1ccccc1)NC(=O)[C@@H](N)CCCN=C(N)N)C(=O)N[C@@H](CCCN=C(N)N)C(=O)N[C@@H](CCCN=C(N)N)C(=O)N[C@@H](CCCN=C(N)N)C(=O)N1CCC[C@H]1C(=O)N[C@H](C(=O)N[C@@H](CCCN=C(N)N)C(=O)N1CCC[C@H]1C(=O)N1CCC[C@H]1C(=O)N[C@@H](Cc1ccccc1)C(=O)N[C@@H](Cc1ccc(O)cc1)C(=O)N1CCC[C@H]1C(=O)O)[C@@H](C)CC [RFRRPIRRRPIRPPFYP] was tested, and the MIC [11] was 8 µM (≈ 18.2 µg/mL).
CC[C@H](C)[C@H](NC(=O)[C@H](CCC(=O)O)NC(=O)[C@H](CCCCN)NC(=O)[C@H](CC(C)C)NC(=O)[C@H](CCC(N)=O)NC(=O)[C@H](CCC(=O)O)NC(=O)[C@@H](NC(=O)[C@H](CC(C)C)NC(=O)[C@@H](N)CCCCN)C(C)C)C(=O)N[C@@H](Cc1ccccc1)C(=O)N[C@@H](CCCN=C(N)N)C(=O)O [KLVEQLKEIFR] was tested, and the MIC [7] was ≥ 178 µM.
For CC[C@H](C)[C@H](NC(=O)[C@H](Cc1c[nH]c2ccccc12)NC(=O)[C@H](CCCCN)NC(=O)[C@H](CCCCN)NC(=O)[C@H](CC(C)C)NC(=O)[C@H](Cc1c[nH]c2ccccc12)NC(=O)[C@H](CCCCN)NC(=O)[C@@H](N)Cc1c[nH]c2ccccc12)C(=O)N[C@@H](CCCCN)C(=O)O [WKWLKKWIK], the MIC [12] was 5.8 µM (≈ 7.63 µg/mL), the MIC [13] was 2.9 µM (≈ 3.82 µg/mL) and the MIC [14] was 11.5 µM (≈ 15.1 µg/mL). For the same compound, the MIC [2] was 11.5 µM (≈ 15.1 µg/mL), the MIC [15] was 5.8 µM (≈ 7.63 µg/mL) and the MIC [16] was 0.458 µM (≈ 0.603 µg/mL). It also gave an MIC [17] of 0.7 µM (≈ 0.921 µg/mL).
CC[C@H](C)[C@H](N)C(=O)N[C@@H](CC(C)C)C(=O)N1CCC[C@H]1C(=O)N[C@@H](CCCCN)C(=O)N[C@@H](CCCCN)C(=O)N[C@@H](CCCCN)C(=O)N1CCC[C@H]1C(=O)N[C@@H](CCCCN)C(=O)N[C@@H](CCCCN)C(=O)N1CCC[C@H]1C(=O)N[C@@H](CCCCN)C(=O)N[C@@H](CCCN=C(N)N)C(=O)N[C@@H](CCCN=C(N)N)C(N)=O [ILPKKKPKKPKRR] was tested, and the MIC [8] was ≥ 100 µM.

— DBAASP
